Data on 24 molecules can be found in PubChem BioAssay AID330 (DTP/NCI, 2004).

Values joined by “and” are separate entries in the source; they are usually repeats but may differ in a detail not shown here. Equal values may be shown once. Toxic doses and inconclusive results are not listed.

For this experiment, the system named is P388 leukemia ip, CD2F1 mice, survival T/C. Description: NCI In Vivo Anticancer Drug Screen. Data for tumor model P388 Leukemia (intraperitoneal) in CD2F1 (CDF1) mice. The note with it: endpoint: median survival time, higher = longer survival. Summed up:
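Mice carrying the transplanted tumor received test compound or vehicle. Survival was recorded in each group, and the value is the treated-group measurement divided by that of the vehicle-treated control group.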

Setting [1] is: dose: 25.0 mg/kg/injection, schedule: Q01DX009 (ip), vehicle: water.
The mark [2] stands for this setting: dose: 50.0 mg/kg/injection, schedule: Q01DX009 (ip), vehicle: water.
Setting [3] is: dose: 100.0 mg/kg/injection, schedule: Q01DX009 (ip), vehicle: water.
[4] abbreviates: dose: 200.0 mg/kg/injection, schedule: Q01DX009 (ip), vehicle: water.
Where [5] appears, read: dose: 50.0 mg/kg/injection, schedule: Q01DX009 (ip), vehicle: saline with Tween-80.
Where [6] appears, read: dose: 100.0 mg/kg/injection, schedule: Q01DX009 (ip), vehicle: saline with Tween-80.
[7] abbreviates: dose: 200.0 mg/kg/injection, schedule: Q01DX009 (ip), vehicle: saline with Tween-80.
[8] abbreviates: dose: 3.12 mg/kg/injection, schedule: Q01DX009 (ip), vehicle: water.
[9] abbreviates: dose: 6.25 mg/kg/injection, schedule: Q01DX009 (ip), vehicle: water.
Setting [10] is: dose: 12.5 mg/kg/injection, schedule: Q01DX009 (ip), vehicle: water.
Where [11] appears, read: dose: 60.0 mg/kg/injection, schedule: Q01DX005 (ip), vehicle: saline with Tween-80.
The mark [12] stands for this setting: dose: 120.0 mg/kg/injection, schedule: Q01DX005 (ip), vehicle: saline with Tween-80.
Where [13] appears, read: dose: 50.0 mg/kg/injection, schedule: Q01DX005 (ip), vehicle: Klucel (hydroxypropylcellulose) (HPC).
Setting [14] is: dose: 100.0 mg/kg/injection, schedule: Q01DX005 (ip), vehicle: Klucel (hydroxypropylcellulose) (HPC).
Where [15] appears, read: dose: 240.0 mg/kg/injection, schedule: Q01DX005 (ip), vehicle: saline with Tween-80.
[16] abbreviates: dose: 12.5 mg/kg/injection, schedule: Q01DX009 (ip), vehicle: Klucel (hydroxypropylcellulose) (HPC).
Setting [17] is: dose: 25.0 mg/kg/injection, schedule: Q01DX009 (ip), vehicle: Klucel (hydroxypropylcellulose) (HPC).
[18] abbreviates: dose: 50.0 mg/kg/injection, schedule: Q01DX009 (ip), vehicle: Klucel (hydroxypropylcellulose) (HPC).
The mark [19] stands for this setting: dose: 50.0 mg/kg/injection, schedule: Q04DX003 (ip), vehicle: other.
Where [20] appears, read: dose: 100.0 mg/kg/injection, schedule: Q04DX003 (ip), vehicle: other.

For the molecule `COc1cccc(/C=C/C(=O)O)c1OC`, the T/C is 98 % of control under setting [1]; 91 % of control under setting [2]; 94 % of control under setting [3]; 100 % of control under setting [4]; 98 % of control (dose: 400.0 mg/kg/injection, schedule: Q01DX009 (ip), vehicle: water).
`COc1cc(/C=C2\CN(C)C(=O)C2=O)ccc1O`: the T/C under setting [5] was 100 % of control; the T/C under setting [6] is 108 % of control; the T/C under setting [7] is 109 % of control; the T/C (dose: 400.0 mg/kg/injection, schedule: Q01DX009 (ip), vehicle: saline with Tween-80) is 108 % of control.
In the case of `O=NNc1nc2ccc([N+](=O)[O-])cc2s1`, the T/C is 95 % of control under setting [8]; 95 % of control under setting [9]; 103 % of control and 97 % of control under setting [10]; 106 % of control and 109 % of control and 112 % of control under setting [1]; 112 % of control and 118 % of control under setting [2].
Regarding `Oc1ccc2ccccc2c1C=NCCS`, the T/C under setting [11] was 87 % of control and the T/C under setting [12] is 87 % of control.
Turning to `CC(=C\c1ccc(Cl)c(Cl)c1)/C(C)=N/NC(N)=Nc1ccccc1`, the T/C was 105 % of control (dose: 25.0 mg/kg/injection, schedule: Q04DX002 (ip), vehicle: saline with Tween-80) and 103 % of control (dose: 50.0 mg/kg/injection, schedule: Q04DX002 (ip), vehicle: saline with Tween-80).
Regarding `O[C@@]12CO[C@@H](c3ccc4c(c3)OCO4)[C@@H]1CO[C@H]2c1ccc2c(c1)OCO2`, the T/C is 92 % of control (dose: 25.0 mg/kg/injection, schedule: Q01DX005 (ip), vehicle: Klucel (hydroxypropylcellulose) (HPC)); 90 % of control under setting [13]; 86 % of control under setting [14]; 95 % of control (dose: 200.0 mg/kg/injection, schedule: Q01DX005 (ip), vehicle: Klucel (hydroxypropylcellulose) (HPC)).
In the case of `O=C(O)c1cscn1.O=C(O)c1cscn1.O=C(O)c1cscn1.O=C(O)c1cscn1.[Cl][Rh][Cl]`, the T/C (dose: 50.0 mg/kg/injection, schedule: Q01DX005 (ip), vehicle: saline + alcohol) is 101 % of control; the T/C (dose: 100.0 mg/kg/injection, schedule: Q01DX005 (ip), vehicle: saline + alcohol) was 107 % of control; the T/C (dose: 200.0 mg/kg/injection, schedule: Q01DX005 (ip), vehicle: saline + alcohol) is 104 % of control.
Take `CC1OC(Oc2c(-c3ccc(O)c(O)c3O)oc3cc(O)ccc3c2=O)C(O)C(O)C1O` (stereo unspecified): the T/C was 102 % of control under setting [11], 98 % of control under setting [12] and 99 % of control under setting [15].
`NC(=S)c1cccc(OCCCOc2ccccc2)c1`: the T/C was 96 % of control under setting [13] and 91 % of control under setting [14].
Consider `C1=NC2=C(CCc3ccccc32)C2=NCCN12`, for which the T/C (dose: 10.0 mg/kg/injection, schedule: Q04DX002 (ip), vehicle: saline with Tween-80) was 100 % of control; the T/C (dose: 20.0 mg/kg/injection, schedule: Q04DX002 (ip), vehicle: saline with Tween-80) was 96 % of control; the T/C (dose: 40.0 mg/kg/injection, schedule: Q04DX002 (ip), vehicle: saline with Tween-80) was 100 % of control.
As to `CC1=CC(=O)C(O)C2(C)C1CC1OC(=O)C(OC(=O)/C=C(\C)C(C)C)C3C(C)C(O)C4(O)OCC13C42` (stereo unspecified), the T/C reads like this: (dose: 0.25 mg/kg/injection, schedule: Q01DX005 (ip), vehicle: saline + alcohol) 113 % of control; (dose: 0.5 mg/kg/injection, schedule: Q01DX005 (ip), vehicle: saline + alcohol) 121 % of control; (dose: 1.0 mg/kg/injection, schedule: Q01DX005 (ip), vehicle: saline + alcohol) 121 % of control.
Turning to `COc1ccc2c(OC)c(CC(=O)C(C)(C)O)c(=O)n(C)c2c1OC`, the T/C (dose: 19.0 mg/kg/injection, schedule: Q01DX005 (ip), vehicle: Klucel (hydroxypropylcellulose) (HPC)) is 96 % of control; the T/C (dose: 38.0 mg/kg/injection, schedule: Q01DX005 (ip), vehicle: Klucel (hydroxypropylcellulose) (HPC)) is 92 % of control; the T/C (dose: 76.0 mg/kg/injection, schedule: Q01DX005 (ip), vehicle: Klucel (hydroxypropylcellulose) (HPC)) is 88 % of control; the T/C (dose: 152.0 mg/kg/injection, schedule: Q01DX005 (ip), vehicle: Klucel (hydroxypropylcellulose) (HPC)) is 91 % of control.
As to `Nc1nc2nn(-c3ccc(C(=O)NC(CCC(=O)O)C(=O)O)cc3)nc2c(=O)[nH]1` (stereo unspecified), the T/C by setting is: under setting [16], 95 % of control; under setting [17], 94 % of control; under setting [18], 94 % of control; (dose: 100.0 mg/kg/injection, schedule: Q01DX009 (ip), vehicle: Klucel (hydroxypropylcellulose) (HPC)) 96 % of control.
As for `C[n+]1cccc(NC(=O)c2ccc(NC(=O)c3ccc(C(=O)Nc4ccc(NC(=N)N)cc4)cc3)cc2)c1`, the T/C (dose: 4.7 mg/kg/injection, schedule: Q01DX009 (ip), vehicle: saline) is 110 % of control; the T/C (dose: 9.4 mg/kg/injection, schedule: Q01DX009 (ip), vehicle: saline) is 90 % of control; the T/C (dose: 12.5 mg/kg/injection, schedule: Q04DX003 (ip), vehicle: saline) was 195 % of control.
Consider `C=C(C)C(=O)OCCn1c(=O)c2c(ncn2C)n(C)c1=O`, for which the T/C was 96 % of control under setting [11], 101 % of control under setting [12] and 92 % of control under setting [15].
In the case of `CNc1ccccc1C(=O)NN=C1c2ccccc2-c2ccccc21`, the T/C is 100 % of control under setting [5], 106 % of control under setting [6] and 99 % of control under setting [7].
Take `CN1CC2CC3=C(CCC45CC6C(C=C34)C63CCC4(CC67CCC8C9(C)CCCC8%10C(C6CC4CC7%10)N(C)C9)OC53)C(C)(C2)C1` (stereo unspecified): the T/C runs as follows: under setting [16], 93 % of control; under setting [17], 103 % of control; under setting [18], 111 % of control.
Take `CCCSC(=O)Nc1cc(OC)ccc1OC`: the T/C runs as follows: under setting [11], 98 % of control; under setting [12], 98 % of control; under setting [15], 104 % of control.
Regarding `O=C1OC2CCCC1O2` (stereo unspecified), the T/C was 106 % of control (dose: 50.0 mg/kg/injection, schedule: Q01DX005 (ip), vehicle: saline with Tween-80); 100 % of control (dose: 100.0 mg/kg/injection, schedule: Q01DX005 (ip), vehicle: saline with Tween-80); 98 % of control (dose: 200.0 mg/kg/injection, schedule: Q01DX005 (ip), vehicle: saline with Tween-80).
Turning to `CN(C)C1C(O)C2Oc3c(cc(O)c4c3C(=O)c3cc5c(c(O)c3C4=O)CCC(C)(O)C5)C(C)(O2)C1O` (stereo unspecified), the T/C (dose: 12.5 mg/kg/injection, schedule: Q04DX003 (ip), vehicle: other) was 112 % of control; the T/C (dose: 25.0 mg/kg/injection, schedule: Q04DX003 (ip), vehicle: other) was 113 % of control; the T/C under setting [19] was 118 % of control; the T/C under setting [20] was 122 % of control.
Regarding `O=C(O)c1cc(C(=O)C(=O)c2cc(C(=O)O)c(O)c3ccccc23)c2ccccc2c1O`, the T/C under setting [5] was 95 % of control, the T/C under setting [6] is 95 % of control and the T/C under setting [7] is 101 % of control.
Regarding `O=NNc1ccc(-c2ccc(NN=O)cc2)cc1`, the T/C is, setting by setting: under setting [8], 97 % of control; under setting [9], 95 % of control; under setting [10], 97 % of control; under setting [1], 100 % of control and 89 % of control; under setting [2], 89 % of control and 94 % of control; under setting [3], 88 % of control. Also, the T/C under setting [4] is 91 % of control.
Regarding `CCc1ccc(/C=C/c2ccc(O)c3ncccc23)[n+](C)c1`, the T/C is, setting by setting: (dose: 4.0 mg/kg/injection, schedule: Q04DX003 (ip), vehicle: saline) 100 % of control; (dose: 8.0 mg/kg/injection, schedule: Q04DX003 (ip), vehicle: saline) 104 % of control; (dose: 16.0 mg/kg/injection, schedule: Q04DX003 (ip), vehicle: saline) 118 % of control.
Regarding `CCCCNC(C)(C)C(SS)c1ccc(C(F)(F)F)cc1` (stereo unspecified), the T/C reads like this: under setting [19], 100 % of control; under setting [20], 104 % of control.
